In assay [1] the target is T1, TEL-ALK-F1174L-BaF3 (Homo sapiens, UniProt Q9UM73, F1174L, cells depend on it).
T1 construct: fused on or other part: TEL (ETV6) N-terminal oligomerising part fused before the ALK intracellular/kinase part; P41212 (Transcription factor ETV6)
Briefly: Cell proliferation experiment (Cell-Titer GLO), TEL-ALK-F1174L-BaF3. It counts as cell-based. The settings on record: 72 h, read-out: IC50 TEL-ALK F1174L-BaF3. Here is the method: (§1) Compounds to be tested: Positive compound Ceritinib and the compounds obtained by the examples of the present invention.
(§2) Cell lines: Karpas-299 and NCI-H3122 which were purchased from the Nanjing kebai biotechnology Co. LTD; TEL-ALK-F1174L-BaF3, TEL-ALK-G1202R-BaF3, TEL-ALK-C1156Y-BaF3 and TEL-ALK-L1196M-BaF3 which were purchased from Hefei zhongkopruisheng biological medicine technology Co. LTD.
(§3) Method: Cells were seeded in 96-well plates for 24 h in growth media containing 10% fetalbovine serum (FBS) and cultured overnight at 37° C. The following day, serial dilutions of compounds or appropriate control were added to the designated wells, and cells were incubated at 37° C. for 72 h. A Cell Titer Glo assay (Promega) was then performed to determine the relative cell numbers. IC50 values were calculated by concentration-response curve fitting using a four-parameter analytical method with Graphpad 6.0. Drug inhibition rate (%)=100%−[OD(Compound)−OD(blank)]/[OD(vehicle)−OD(blank)]×100% Equation: […]

Assay [2] concerns the target T2, TEL-ALK-G1202R-BaF3 (Homo sapiens, UniProt Q9UM73, G1202R, cells depend on it).
T2 construct: fused on or other part: TEL (ETV6) N-terminal oligomerising part fused before the ALK intracellular/kinase part; P41212 (Transcription factor ETV6)
Briefly: Cell proliferation experiment (Cell-Titer GLO), TEL-ALK-G1202R-BaF3. It counts as cell-based. The settings on record: 72 h, read-out: IC50 TEL-ALK G1202R-BaF3. Here is the method:
as §1, §2, §3

Assay [3] addresses T3, TEL-ALK-C1156Y-BaF3 (Homo sapiens, UniProt Q9UM73, C1156Y, cells depend on it).
T3 construct: fused on or other part: TEL (ETV6) N-terminal oligomerising part fused before the ALK intracellular/kinase part; P41212 (Transcription factor ETV6)
In words: Cell proliferation experiment (Cell-Titer GLO), TEL-ALK-C1156Y-BaF3. Conditions: 72 h, read-out: IC50 TEL-ALK C1156Y-BaF3. It counts as cell-based. Here is the method:
as §1, §2, §3

For assay [4], the system named is NCI-H3122. In words: Cell proliferation experiment (Cell-Titer GLO), NCI-H3122. It counts as cell-based. The settings on record: Homo sapiens, 72 h. Here is the method:
as §1, §2, §3

Assay [5] has as its system Karpas-299. In words: Cell proliferation experiment (Cell-Titer GLO), Karpas-299. It counts as cell-based. The settings on record: Homo sapiens, 72 h. Here is the method: as §1, §2, §3
Assay [6] relates to zebrafish iridophore pigment cells. Briefly: Phenotypic screening of zebrafish: effect on iridophore pigment cells. The assay is classed as in vivo, Zebrafish (Danio rerio). The settings on record: for IOD: added at 6 hpf, images at 3 dpf. An excerpt:
Zebrafish (Danio rerio) is emerging as a predictive vertebrate animal model for in vivo assessment of drug efficacy, toxicity and safety. An important advantage of the zebrafish animal model is that the morphological and molecular basis of tissues and organs is either identical or similar to other vertebrates, including humans. The sequence and presumed function of many genes that are important for vertebrates are conserved in the zebrafish and the homology is as high as 85%. It has been shown that loss-of-function alleles for leukocyte tyrosine kinase (Ltk), the sister kinase to ALK, lack iridophores in zebrafish (Lopes, S. S., Yang, X., et al. (2008). Leukocyte tyrosine kinase functions in pigment cell development. PLoS Genet, 4.). Iridophores are neural crest-derived pigment cells that are clearly visible as shiny silver cells in the developing zebrafish embryo which distribute in the head, eyes, the lateral spine. ALK and LTK are sister kinase.
Therefore, using this principle, we investigated the effect of the compounds on normal zebrafish iridophore pigment cells to explore the compound's anti-ALK activity in vivo.
Method: Fish eggs of 6 hpf (hours post impurity) were randomly divided into groups. Then, subjects with different concentrations were added and the images were collected at 3 dpf (days post impurity). Then, the IOD (integrated option density) values of zebrafish dorsal iridophore pigment cells from the release pore to the caudal position were analyzed using ImageJ software. The Graphpad prism6.0 was used to conduct statistical analysis on Dunnett's t-test, and p<0.05 indicates statistical difference. The calculation formula of iridophore pigment inhibition rate is as follows: Inhibition rate (%)=[1−IOD(Compound)/IOD(vehicle)]×100%

Assay [7] deals with NCI-H2228 tumor cells. In words: Subcutaneous NCI-H2228 lung cancer xenograft model. The assay is classed as in vivo, BALB/C nude mice. The settings on record: for TGI / tumor volume: 30 mg/kg PO QD 14 days; for tumor volume: at 14 days after administration (first day after administration end); for anti-tumor effect: 30 mg/kg, once a day, continuously for 14 days. The procedure:
BALB/C nude mice were inoculated at the right flank with NCI-H2228 tumor cells to establish the human Lung cancer xenograft model. […] The drug was administered for 14 days and then discontinued for two weeks. The therapeutic effect was evaluated by calculating the relative tumor proliferation rate T/C (%), and the tolerability of treatment was evaluated by the body weight changes and death.
Tumor volume (TV) were measured twice per week in two dimensions using a caliper, and the volume were expressed in mm^3 using the formula: V=0.5 a×b^2 where a and b are the long and short diameters of the tumor, respectively.
Relative tumor volume RTV=Vt/V0, Vt=tumor volume of the drug-treated group on a given day of the study, V0=tumor volume of the drug-treated group on the initial day of dosing.
The T/C value (%) is an indicator of tumor response to treatment, and one of commonly used anti-tumor activity endpoint; T/C %=TRTV/CRTV×100% Relative Tumor Growth Inhibition; % TGI=(1−T/C)×100%;

The target of assay [8] is T4, Wild-Type ALK (Homo sapiens, UniProt Q9UM73).
T4 construct: purchased Life Technology
In words: Z'-LYTE (FRET) ALK kinase inhibitory activity. It counts as biochemical. Here is the method: (§4) The kinase activity assay was determined by using kinase assay panel (Life Technology) and the result was in table 1.

The target in assay [9] is T5, ALK L1196M (Homo sapiens, UniProt Q9UM73, L1196M).
T5 construct: purchased Life Technology
Briefly: LanthaScreen Eu Kinase Binding Assay (TR-FRET) on ALK mutant.
Source text: Meanwhile, The LanthaScreen® Eu Kinase Binging Assay (TR-FRET) method was used for determining ALK Mutants (such as ALK L1196M) inhibitory activity IC50. LanthaScreen Eu kinase binding experiment detected Alexa Fluor conjugate or kinase “tracer” binding by adding Eu labeled antibodies or anti-label antibodies. The combination of tracer and antibody with kinase leads to a high level of FRET, whereas the use of kinase inhibitors in place of tracer may cause FRET loss.
as §4

Assay [10] addresses T6, TEL-ALK-L1196M-BaF3 (Homo sapiens, UniProt Q9UM73, L1196M, cells depend on it).
T6 construct: fused on or other part: TEL (ETV6) N-terminal oligomerising part fused before the ALK intracellular/kinase part; P41212 (Transcription factor ETV6)
Briefly: Cell proliferation experiment (Cell-Titer GLO), TEL-ALK-L1196M-BaF3. The assay is classed as cell-based. Conditions: 72 h, read-out: IC50 TEL-ALK L1196M-BaF3. Here is the method:
as §2
Method: Cells were seeded in 96-well plates for 24 h in growth media containing 10% fetalbovine serum (FBS) and cultured overnight at 37° C. The following day, serial dilutions of compounds or appropriate control were added to the designated wells, and cells were incubated at 37° C. for 72 h. A Cell Titer Glo assay (Promega) was then performed to determine the relative cell numbers. IC50 values were calculated by concentration-response curve fitting using a four-parameter analytical method with Graphpad 6.0.

The mark [11] stands for this setting: Danio rerio, 15 μM, iridophore pigment, 3 dpf, read-out: Inhibition rate %.
Setting [12] is: at 14 days after administration.
The mark [13] stands for this setting: end of the experiment (15 days after the administration).

Where only a bound is given, the exact number is not on record here.

T4 sequence (Q9UM73 19-1620): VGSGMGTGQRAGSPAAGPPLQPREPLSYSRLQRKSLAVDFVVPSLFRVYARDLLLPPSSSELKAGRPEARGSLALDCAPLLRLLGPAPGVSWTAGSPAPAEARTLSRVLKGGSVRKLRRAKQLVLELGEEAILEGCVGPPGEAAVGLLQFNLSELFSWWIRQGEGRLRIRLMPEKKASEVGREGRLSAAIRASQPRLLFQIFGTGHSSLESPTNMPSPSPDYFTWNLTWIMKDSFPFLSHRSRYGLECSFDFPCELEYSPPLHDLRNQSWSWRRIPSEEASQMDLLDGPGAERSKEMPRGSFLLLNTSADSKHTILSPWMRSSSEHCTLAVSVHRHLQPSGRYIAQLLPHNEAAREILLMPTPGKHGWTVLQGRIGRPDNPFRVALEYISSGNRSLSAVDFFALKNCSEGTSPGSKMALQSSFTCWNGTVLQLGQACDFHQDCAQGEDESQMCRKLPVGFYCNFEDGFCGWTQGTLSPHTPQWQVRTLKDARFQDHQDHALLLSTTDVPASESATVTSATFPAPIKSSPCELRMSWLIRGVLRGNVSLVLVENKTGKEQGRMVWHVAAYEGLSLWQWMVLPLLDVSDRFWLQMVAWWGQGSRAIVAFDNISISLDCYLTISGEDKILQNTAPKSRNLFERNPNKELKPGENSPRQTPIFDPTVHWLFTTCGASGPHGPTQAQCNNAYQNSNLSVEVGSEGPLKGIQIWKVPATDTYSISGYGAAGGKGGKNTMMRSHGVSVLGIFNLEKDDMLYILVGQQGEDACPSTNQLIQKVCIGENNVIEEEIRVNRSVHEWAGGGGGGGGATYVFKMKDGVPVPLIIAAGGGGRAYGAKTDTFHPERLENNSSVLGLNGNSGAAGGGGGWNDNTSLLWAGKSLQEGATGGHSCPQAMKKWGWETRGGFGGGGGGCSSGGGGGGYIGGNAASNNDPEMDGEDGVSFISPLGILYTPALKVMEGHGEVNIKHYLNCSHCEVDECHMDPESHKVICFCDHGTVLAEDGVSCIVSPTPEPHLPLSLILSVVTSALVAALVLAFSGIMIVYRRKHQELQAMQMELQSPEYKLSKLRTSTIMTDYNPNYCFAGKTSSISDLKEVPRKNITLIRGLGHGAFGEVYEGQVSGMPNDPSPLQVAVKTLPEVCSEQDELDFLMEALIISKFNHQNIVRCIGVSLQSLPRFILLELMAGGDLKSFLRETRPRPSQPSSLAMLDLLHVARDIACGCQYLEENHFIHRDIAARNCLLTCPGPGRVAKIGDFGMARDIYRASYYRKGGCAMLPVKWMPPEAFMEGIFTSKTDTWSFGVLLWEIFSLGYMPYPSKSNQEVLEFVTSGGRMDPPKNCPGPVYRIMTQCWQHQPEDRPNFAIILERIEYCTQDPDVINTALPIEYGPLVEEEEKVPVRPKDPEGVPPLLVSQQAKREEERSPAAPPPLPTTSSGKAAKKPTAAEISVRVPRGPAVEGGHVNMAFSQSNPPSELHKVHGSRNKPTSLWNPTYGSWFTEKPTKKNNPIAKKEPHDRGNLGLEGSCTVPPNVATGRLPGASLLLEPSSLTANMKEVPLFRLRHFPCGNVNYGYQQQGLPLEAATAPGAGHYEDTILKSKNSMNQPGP
T1 sequence (Q9UM73 whole entry F1174L, the tested form may be a part): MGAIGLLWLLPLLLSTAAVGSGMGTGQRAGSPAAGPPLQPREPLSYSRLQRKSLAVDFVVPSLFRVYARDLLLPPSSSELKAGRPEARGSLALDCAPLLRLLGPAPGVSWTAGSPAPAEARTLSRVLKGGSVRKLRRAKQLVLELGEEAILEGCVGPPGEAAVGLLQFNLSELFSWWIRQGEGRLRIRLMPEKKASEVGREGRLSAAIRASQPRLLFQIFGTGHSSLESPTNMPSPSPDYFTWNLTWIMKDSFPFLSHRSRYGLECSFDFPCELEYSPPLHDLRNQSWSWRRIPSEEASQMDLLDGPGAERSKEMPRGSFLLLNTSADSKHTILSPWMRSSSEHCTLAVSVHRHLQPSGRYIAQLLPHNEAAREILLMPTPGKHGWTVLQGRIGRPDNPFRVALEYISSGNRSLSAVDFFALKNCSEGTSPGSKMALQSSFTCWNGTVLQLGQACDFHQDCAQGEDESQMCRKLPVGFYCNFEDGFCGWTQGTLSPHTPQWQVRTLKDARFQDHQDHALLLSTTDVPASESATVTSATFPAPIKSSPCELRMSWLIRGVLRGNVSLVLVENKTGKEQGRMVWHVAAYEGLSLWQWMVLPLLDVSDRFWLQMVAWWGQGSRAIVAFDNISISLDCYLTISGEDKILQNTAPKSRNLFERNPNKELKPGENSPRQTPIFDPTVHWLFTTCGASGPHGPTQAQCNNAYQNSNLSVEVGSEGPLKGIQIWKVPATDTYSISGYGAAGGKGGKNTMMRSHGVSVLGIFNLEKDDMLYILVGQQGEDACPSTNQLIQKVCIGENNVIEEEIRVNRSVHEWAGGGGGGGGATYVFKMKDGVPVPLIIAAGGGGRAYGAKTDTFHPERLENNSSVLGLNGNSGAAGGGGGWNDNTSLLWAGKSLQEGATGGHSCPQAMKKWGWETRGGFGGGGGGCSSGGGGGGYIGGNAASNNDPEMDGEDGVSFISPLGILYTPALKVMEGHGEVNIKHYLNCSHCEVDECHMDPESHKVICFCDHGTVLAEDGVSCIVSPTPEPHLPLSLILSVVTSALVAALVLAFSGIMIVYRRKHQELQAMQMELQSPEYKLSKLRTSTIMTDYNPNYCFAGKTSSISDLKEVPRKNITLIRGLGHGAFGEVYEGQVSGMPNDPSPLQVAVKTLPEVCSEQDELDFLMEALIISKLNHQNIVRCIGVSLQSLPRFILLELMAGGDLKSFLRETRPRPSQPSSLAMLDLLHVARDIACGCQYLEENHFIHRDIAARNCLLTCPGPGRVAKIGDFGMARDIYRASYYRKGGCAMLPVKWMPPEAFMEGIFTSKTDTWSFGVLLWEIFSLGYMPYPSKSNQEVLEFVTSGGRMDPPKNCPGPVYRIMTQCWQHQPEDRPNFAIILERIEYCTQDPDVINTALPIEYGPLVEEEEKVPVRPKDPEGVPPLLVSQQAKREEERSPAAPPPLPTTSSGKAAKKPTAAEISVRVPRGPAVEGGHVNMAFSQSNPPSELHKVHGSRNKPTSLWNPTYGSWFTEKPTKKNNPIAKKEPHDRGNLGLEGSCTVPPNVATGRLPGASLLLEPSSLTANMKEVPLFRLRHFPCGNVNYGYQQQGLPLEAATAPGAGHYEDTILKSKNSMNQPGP
T3 sequence (Q9UM73 whole entry C1156Y, the tested form may be a part): as the sequence (Q9UM73 whole entry F1174L, the tested form may be a part) above, with C1156Y, L1174F counted along it
T2 sequence (Q9UM73 whole entry G1202R, the tested form may be a part): as the sequence (Q9UM73 whole entry F1174L, the tested form may be a part) above, with L1174F, G1202R counted along it
T5 sequence (Q9UM73 19-1620 L1196M): as the sequence (Q9UM73 19-1620) above, with L1178M counted along it
T6 sequence (Q9UM73 whole entry L1196M, the tested form may be a part): as the sequence (Q9UM73 whole entry F1174L, the tested form may be a part) above, with L1174F, L1196M counted along it

Consider `Cc1cc(Nc2ncc(Cl)c(Nc3ccccc3S(=O)(=O)C(C)C)n2)c(OC(C)C)cc1C1CCNCC1` [Ceritinib, reference compound], for which the GI50 in assay [1] was 36.1 nM; in [2] it was more than 180 nM; in assay [3], 36.5 nM. Also, the results for the IC50 in assay [4] and in [5] were 40.7 nM and 40 to 85 nM, respectively. The molecule further had an IOD in assay [6] (15 μM) of 35.5 ± 7.0. The inhibition at 15 µM in [6] (setting [11]) amounted to 95%. Moreover, the values for the tumour growth inhibition (TGI) in assay [7] (setting [12]) and in assay [7] (setting [13]) were 94.7% and 95.3%, respectively. Further, in [7], the tumor volume is 17 mm^3. Moreover, in assay [7], the anti-tumor effect entry is reported as “significant anti-tumor effect”.
As to `Cc1cc(Nc2ncc(Cl)c(Nc3cn(C)nc3S(=O)(=O)C(C)C)n2)c2c(c1C1CCNCC1)C[C@@H](C)O2` [REX-D1, (R)-5-chloro-N^2-(2,5-dimethyl-4-(piperidin-4-yl)-2,3-dihydrobenzofuran-7-yl)-N^4-(3-(isopropylsulfonyl)-1-methyl-1H-pyrazol-4-yl)pyrimidine-2,4-diamine], the IC50 was 6.82 nM in assay [8], 1.34 nM in [9], 10.6 nM in [4] and less than 20 nM in [5]. For the same molecule, the GI50 in [1] was less than 10 nM; in assay [2] it was more than 180 nM; in [3], 10.5 nM; in assay [10] it was 10.5 nM.
On to `Cc1cc(Nc2ncc(Cl)c(Nc3cn(C)nc3S(=O)(=O)C(C)C)n2)c2c(c1C1CCN(C)CC1)C[C@@H](C)O2` [REX-D2, (R)-5-chloro-N^2-(2,5-dimethyl-4-(1-methylpiperidin-4-yl)-2,3-dihydrobenzofuran-7-yl)-N^4-(3-(isopropylsulfonyl)-1-methyl-1H-pyrazol-4-yl)pyrimidine-2,4-diamine], for which the IC50 in assay [8] was 13.3 nM; in assay [9] it was 0.695 nM; in assay [4], 10.6 nM; in [5] it was less than 10 nM. Moreover, the GI50 in assay [1] was less than 10 nM; in assay [2], less than 50 nM; in assay [3] it was 10.4 nM; in assay [10], 10.5 nM. For the same molecule, the IOD in [6] (5 μM) turned out to be 420.9 ± 34.1; in assay [6] (10 μM), 173.8 ± 20.5; in assay [6] (15 μM), 64.6 ± 16.1; in [6] (20 μM) it was 24.8 ± 5.8. In [6] (Danio rerio, 5 μM, iridophore pigment, 3 dpf, read-out: Inhibition rate %), the inhibition at 5 µM was 38%. In addition, the inhibition at 10 µM in [6] (Danio rerio, 10 μM, iridophore pigment, 3 dpf, read-out: Inhibition rate %) amounted to 75%. The inhibition at 15 µM in [6] (setting [11]) amounted to 91%. Further, in assay [6] (Danio rerio, 20 μM, iridophore pigment, 3 dpf, read-out: Inhibition rate %), the inhibition at 20 µM turned out to be 96%. Further, the “inhibition of the formation of iridophore pigment cells” value in assay [6] (different doses of concentration) is on record as “significant inhibition”. Further, the TGI in assay [7] (setting [12]) turned out to be 96.1%; in [7] (setting [13]) it was 98.8%. In addition, the tumor volume in [7] came to 13 mm^3. For the same molecule, the anti-tumor effect result in assay [7] is recorded as “significant anti-tumor effect”.
Take `Cc1cc(Nc2ncc(C(F)(F)F)c(Nc3cn(C)nc3S(=O)(=O)C(C)C)n2)c2c(c1C1CCNCC1)C[C@@H](C)O2` [REX-D3, (R)—N^2-(2,5-dimethyl-4-(piperidin-4-yl)-2,3-dihydrobenzofuran-7-yl)-N^4-(3-(isopropylsulfonyl)-1-methyl-1H-pyrazol-4-yl)-5-(trifluoromethyl)pyrimidine-2,4-diamine]: the 50% inhibitory concentration (IC50) is 15.9 nM in assay [8], 1.25 nM in assay [9], 10.8 nM in [4] and less than 20 nM in assay [5]. For the same molecule, the GI50 is less than 10 nM in assay [1], less than 140 nM in assay [2], 10.5 nM in assay [3] and 10.4 nM in [10].
For `Cc1cc(Nc2ncc(C(F)(F)F)c(Nc3cn(C)nc3S(=O)(=O)C(C)C)n2)c2c(c1C1CCN(C)CC1)C[C@@H](C)O2` [REX-D4, (R)—N^2-(2,5-dimethyl-4-(1-methylpiperidin-4-yl)-2,3-dihydrobenzofuran-7-yl)-N^4-(3-(isopropylsulfonyl)-1-methyl-1H-pyrazol-4-yl)-5-(trifluoromethyl)pyrimidine-2,4-diamine], the IC50 was 5.9 nM in assay [8], 0.565 nM in assay [9], 10.6 nM in assay [4] and less than 10 nM in [5]. In addition, the GI50 in assay [1] is less than 10 nM; in assay [2], less than 50 nM; in assay [3], 10.5 nM; in assay [10], 10.5 nM.
For the molecule `CCn1cc(Nc2nc(Nc3cc(C)c(C4CCN(C)CC4)c4c3O[C@H](C)C4)ncc2Cl)c(S(=O)(=O)C(C)C)n1` [REX-D36, (R)-5-chloro-N^2-(2,5-dimethyl-4-(1-methylpiperidin-4-yl)-2,3-dihydrobenzofuran-7-yl)-N^4-(1-ethyl-3-(isopropylsulfonyl)-1H-pyrazol-4-yl)pyrimidine-2,4-diamine], the IC50 in assay [8] came out at 9.28 nM; in assay [9], 0.55 nM; in [4], 11.4 nM. Besides, the GI50 in assay [1] was 22.4 nM; in assay [2] it was more than 180 nM.

One may read the IC50 as the concentration that gives 50% inhibition. The inhibition is the share of the control response that was lost under treatment. The term TGI denotes the reduction of tumour growth relative to the control group. Lower therefore signals little slowing of growth.

Source of the values: patent US10710993B2, “Benzofuran pyrazole amine kinase inhibitor” (Hangzhou REX Pharmaceutical Co., LTD., priority 2016, dated 2020).
